Source: PubChem BioAssay (NCI)
Where “and” joins values, the source holds several entries; their conditions need not be identical. Equal entries are not always repeated.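 Interpolation was linear, between the two tested concentrations surrounding the appropriate level; five concentrations were tested over 48 hours in 96-well plates. GI50 is the concentration that inhibits growth by half. Definition used: TGI = concentration required for complete inhibition of growth.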

Tested on: MDA-MB-468 breast
Assay: growth of human tumour cells (NCI), 48 h

SMILES | GI50 | TGI
C=CCN(CC=C)C(=O)[C@H](CC)[C@@H]1CC[C@@H](C)[C@@H]([C@H](C)[C@@H](O)[C@@H](C)C(=O)[C@H](CC)C2O[C@]3(C=C[C@@H](O)[C@]4(CC[C@@](C)([C@H]5CC[C@](O)(CC)[C@H](C)O5)O4)O3)[C@H](C)C[C@@H]2C)O1 (stereo partly drawn) | 1.53 µM | 4.84 µM
S=C(NCc1ccc2c(c1)OCO2)N1CCN(c2ncnc3c2oc2ccccc23)CC1 | 0.456 µM | > 100 µM
CC1(C)[C@H](O)[C@H](F)C[C@@]2(C)Oc3ccc(C(=O)Nc4ccc5c(c4)NC(=O)C54CCN(CCCCC#N)CC4)cc3C[C@H]12 | 0.0654 µM and 0.128 µM | 10.7 µM
O=C(NCCCNc1cc(-c2cn(-c3ccccc3)nc2-c2cccc(O)c2)ccn1)Nc1cccc(C(F)(F)F)c1 | 1.61 µM | 6.15 µM
Fc1ccc2nc(-c3nc(-c4ccccc4)n4ccccc34)[nH]c2c1 | 1.49 µM | 4.02 µM
CC(=O)N(O)c1ccc(/C=C/c2ccccc2)cc1 | 0.0686 µM | 0.932 µM
Clc1nc(Cl)c2ncn(CCOCCn3cnc4c(Cl)nc(Cl)nc43)c2n1 | 0.179 µM | 0.359 µM
C[C@@H](NC(=O)c1ccc(F)cc1)c1ccc2c(c1)CCN2C(=O)C1CCOCC1 | > 100 µM | > 100 µM
c1ccc(C2CCCCC2)c(OCCCCCN2CCNCC2)c1 | 1.77 µM | 4.2 µM
C=C1C(=O)O[C@H]2[C@H]1CC/C(COC(=O)NCc1c[nH]c3ccc(F)cc13)=C\CC[C@@]1(C)O[C@@H]21 | 1.09 µM | 2.91 µM
Nc1nc2ccccc2c2c1S(=O)(=O)c1ccc(Cl)cc1C2=O | 0.735 µM | 2.15 µM
CC1CCN(CCOc2ccc(CNc3ccc4nc(CCC5CCCCC5)[nH]c4c3)cc2)CC1 | 1.55 µM | 3.25 µM
N#C/C(=C\c1cc2ccc(N3CCC3)cc2oc1=O)C(=O)N(CC(=O)O)CC(=O)O | > 100 µM | > 100 µM
COc1cc2c(cc1NC(=O)C(Cl)Cl)-c1ccc(NC(=O)C(Cl)Cl)cc1C2 | 0.28 µM | 0.931 µM
CC(C)N(Cc1ccc(F)cc1)c1ccc(CO)c(Cl)c1 | 0.017 µM | 0.0463 µM
Cc1ccc(-n2c(-c3cc4c([nH]c5ccccc54)c(-c4cccc(O)c4)n3)n[nH]c2=S)cc1 | 0.28 µM | 1.18 µM
NCc1ccc(-c2nc(-c3ccc(Cl)c(O)c3)c(-c3ccncc3)[nH]2)cc1 | > 12.2 µM | > 25 µM
COCCOCCOCCOCCOC(=O)OC[n+]1ccc(NC(=NCCCCCCOc2ccc(Cl)cc2)NC#N)cc1 | 1.42 µM | 9.99 µM
O=S(=O)(NCCCNc1nccc(-c2c(-c3ccc(F)cc3)nc3sccn23)n1)c1ccc(F)cc1 | 4.55 µM | > 100 µM
N#Cc1cccc(Nc2ncc(-c3ccccc3)o2)c1 | 5.29 µM | > 25 µM
CC1SC(c2ccc(Cl)cc2)N(CCc2cccs2)C1=O (stereo not drawn) | 1.47 µM | 3.75 µM
O=C(c1cc(Cc2n[nH]c(=O)c3ccccc23)ccc1F)N1CCN(C(=O)C2CC2)CC1 | 8.29 µM and 13.9 µM | > 100 µM
O=c1[nH]c2ccccc2n1C1CCN(CCCC(c2ccc(F)cc2)c2ccc(F)cc2)CC1 | 1.32 µM and 1.5 µM | 2.83 µM and 4.46 µM
CCn1ccnc1C(=O)/C=C/c1ccc(CC(=O)Nc2ccc(F)cc2)cc1 | 1.99 µM | 4.94 µM

SMILES | GI50 | TGI
Nc1nc(-c2ccc(Cl)cc2)nc2c1sc(=S)n2-c1ccccc1 | 4.06 µM | 23.2 µM
C=CC[N+]1(CC)CCN=C1CCCCCCCCCCCCCCCCC (stereo not drawn) | 0.135 µM | 0.538 µM
COc1ccc2c(c1)C(=O)c1c-2c(=O)n(CCCN(C)C)c2cc(OC)c(OC)cc12 | 1.43 µM | 9.92 µM
O=S(=O)(NCCCNc1cc(-c2cn(-c3ccccc3)nc2-c2cccc(O)c2)ccn1)c1ccc(F)cc1 | 2.55 µM | 6.73 µM
O=C1/C(=C/c2ccccc2[N+](=O)[O-])COc2ccc(O)cc21 | 1.1 µM | 4.56 µM
C=CC(=O)N[C@@H](/C=C/C(=O)OCC)Cc1ccc(-c2cc(Cl)cc(Cl)c2)cc1 | 5.17 µM | 48.1 µM
COc1ccc(COc2cc3oc(=O)c4cc(C(C)O)ccc4c3cc2OC)cc1 (stereo not drawn) | 9.2 µM | > 100 µM
Cn1c(C(=O)c2cccc3ccccc23)nc2ccccc21 | 5.92 µM | > 100 µM
CCN(Cc1ccc(F)cc1)c1ccc(CO)c(C(F)(F)F)c1 | 0.165 µM | 0.499 µM
COC(=O)c1cc([N+](=O)[O-])cc([N+](=O)[O-])c1Cl | 1.22 µM | 2.57 µM
COc1ccc(-c2[nH]c3ccccc3c2/C=C(\C#N)S(=O)(=O)c2ccccc2)cc1 | – | 1.93 µM
C[C@H]1CN(C2COC2)CCN1c1ccc(Nc2cc(-c3ccnc(N4CCn5c(cc6c5CC(C)(C)C6)C4=O)c3CO)cn(C)c2=O)nc1 | 22.9 µM | 89.4 µM
COc1cc(C(=O)/C=C/c2c(C(F)(F)F)nc3ccccn23)cc(OC)c1OC | 2.12 µM | 4.72 µM
O=C1c2ccccc2C(=O)c2c1cc1c(c2[N+](=O)[O-])OCO1 | 1.64 µM | 4.41 µM
COc1ccc(/C=N\Nc2nc(SCC(C)C)nc(-c3ccc(OC)cc3)c2C#N)cc1 | 4.36 µM | 28 µM
COc1ccc(-c2c3c(N)c4c(nc3nc3c2c(C)nn3-c2ccccc2)CCCC4)cc1 | 2.33 µM | 7.67 µM
COc1cc(-c2ncn(/C=C\c3nnco3)n2)cc(C(F)(F)F)c1 | 0.518 µM | 3.96 µM
COC1=C(OC)C(=O)C(CCCCCCCCCCO)=C(C)C1=O | 1.66 µM | 3.76 µM
COc1ccc(S(=O)(=O)N2CCNCC2)cc1OC | > 100 µM | > 100 µM
Clc1ccc([I+]c2ccc(Cl)cc2Cl)c(Cl)c1 | 1.33 µM | 2.81 µM
COc1ccc(C2CC(c3ccc(N(C)C)cc3)=NN2c2ccc(S(N)(=O)=O)cc2)cc1 (stereo not drawn) | 3.28 µM | > 100 µM
N#CCNC(=O)c1ccc(-c2ccnc(Nc3ccc(N4CCOCC4)cc3)n2)cc1 | 2.69 µM and 2.35 µM | > 10 µM and 11.9 µM
N#Cc1c(NC(=O)c2ccccc2F)sc2c1CCCC2 | 5.65 µM | > 25 µM
